In ChEMBL document CHEMBL3751852, “New mannose derivatives: The tetrazole analogue of mannose-6-phosphate as angiogenesis inhibitor” (2016):
Calls of active or inactive are those of the source. The calls are words filed in the database; no cut-off is given here.

Tested on: Chorioallantoic membrane
Assay: Antiangiogenic activity in chicken chorioallantoic membrane assessed as area of neovascularization at 60 mg/ml administered on 7th embryonic day incubated for 4 days by microscopy (reference value: 100%)
Format: functional, Gallus gallus

CO[C@H]1O[C@H](Cc2nnn[nH]2)[C@@H](O)[C@H](O)[C@@H]1O
Activity: 68%

CO[C@H]1O[C@H](CS(=O)(=O)c2ccccc2)[C@@H](O)[C@H](O)[C@@H]1O
Activity (Gallus gallus): inactive

CO[C@H]1O[C@H](CCP(=O)(O)O)[C@@H](O)[C@H](O)[C@@H]1O
Activity: 138%

CO[C@H]1O[C@H](CCC(=O)O)[C@@H](O)[C@H](O)[C@@H]1O
Activity: 70%

CO[C@H]1O[C@H](COP(=O)(O)O)[C@@H](O)[C@H](O)[C@@H]1O
Activity: 43%
